Data set [1] has as its target T1, GFP-tagged ferroportin (FPN) (Homo sapiens, UniProt Q9NP59).
T1 construct: expressed in transfected cells
T1 sequence (Q9NP59 1-571): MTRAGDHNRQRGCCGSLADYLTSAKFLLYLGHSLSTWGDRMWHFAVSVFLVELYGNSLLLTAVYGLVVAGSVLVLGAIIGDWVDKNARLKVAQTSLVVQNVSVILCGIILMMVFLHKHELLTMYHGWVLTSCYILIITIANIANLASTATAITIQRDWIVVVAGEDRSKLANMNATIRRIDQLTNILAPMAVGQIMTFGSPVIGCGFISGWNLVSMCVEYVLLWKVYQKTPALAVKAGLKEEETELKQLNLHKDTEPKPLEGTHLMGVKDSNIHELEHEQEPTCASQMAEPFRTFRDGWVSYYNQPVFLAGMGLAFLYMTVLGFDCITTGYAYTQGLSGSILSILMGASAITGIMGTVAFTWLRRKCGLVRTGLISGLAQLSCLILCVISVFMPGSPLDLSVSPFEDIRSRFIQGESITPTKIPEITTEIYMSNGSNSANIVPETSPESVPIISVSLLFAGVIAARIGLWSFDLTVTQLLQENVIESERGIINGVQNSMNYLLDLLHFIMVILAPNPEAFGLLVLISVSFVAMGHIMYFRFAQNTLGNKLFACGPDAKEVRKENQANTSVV
The experiment in a line: FPN-GFP degradation (internalisation) assay by flow cytometry in HEK293:T-REx-FPN-GFP cells. The data set is classed as cell-based. The conditions noted are these: 24 h treatment; for EC50: FPN degradation dose-response, HEK293:T-REx-FPN-GFP cells; for FPN Degradation % ± SEM: peptide 10 μM, normalised with respect to hepcidin (1 μM), n = 3. The protocol:
HEK293:T-REx^TM-FPN-GFP cells, described previously, were cultured in T75 flasks containing FPN-GFP media (Dulbecco’s Modified Eagle’s Medium (DMEM) containing high glucose, GlutaMAX^TM supplement, hydroxyethyl piperazineethanesulfonic acid (HEPES), 10% tetracycline screened foetal bovine serum (FBS), 1% penicillin/streptomycin, and 100 μg/mL of hygromycin) and maintained at 37 °C in a humidified atmosphere of 5% CO2.
HEK293:T-REx^TM-FPN-GFP cells were plated in FPN-GFP media in the presence of 20 µM FAC (ferric ammonium citrate = ammonium iron (III) citrate) and induced on the following day with 50 ng/mL of doxycycline hydrochloride. After 24 h, doxycycline hydrochloride was washed off with PBS (phosphate buffered saline) and the cells were treated with peptides for another 24 h. Cells were then trypsinised, centrifuged (5 min at 1000 rpm), and resuspended in PBS at approximately 1 × 10^4 cell/µL. The intensity of green fluorescence was measured by flow cytometry performed on a Becton Dickinson LSR Fortessa-X-20. Cells not induced with doxycycline hydrochloride were used to establish a gate to exclude background fluorescence, and cells induced to express FPN-GFP but not treated with any peptides were used as the positive control. Each peptide treatment was repeated independently at least three times except for the initial screening of the mono N-methylated analogues (Figure 2), which was only performed once. The results were expressed as the % of the reduction in fluorescence with respect to hepcidin-treated cells according to the following formula: % FPN Degradation = (1 − (average FHepc − Fχ)/(average FHepc − average Funtreated)) × 100, where F corresponds to the GFP gate median, and χ to the peptide analysed.
Peptide bioactivity was measured using HEK293:T-REx^TM-FPN-GFP cells stably expressing a GFP-tagged ferroportin (FPN) construct that was treated overnight with different concentrations of hepcidin or analogues. FPN-GFP expression and FPN-GFP internalisation and degradation in response to hepcidin treatment were confirmed by confocal microscopy, and the % of GFP fluorescence was then analysed by flow cytometry and expressed as a % FPN degradation. […] This promising result led us to design a second series of analogues that included multiple N-methylated residues with and without backbone cyclisation.
(In general: A flow cytometer gives signals particle by particle.)

Data set [2] is described as follows: Serum stability assay (25% human male serum, 37 °C, LC-MS). The format is in vitro ADME. The method, then:
Human male serum was centrifuged at 20,000 g for 10 min and the clear part of the supernatant was then diluted to 25% (v/v) with Milli-Q® water and incubated at 37 °C for 15 min. Each peptide sample was dissolved in triplicate at a final concentration of 20 μM in pre-incubated 25% serum, or Milli-Q® water as a control. […] Supernatant was then removed and transferred into vials for liquid chromatography mass spectrometry (LC-MS) analysis (50 μL injection and multiple reaction monitoring (MRM) protocol, Table S2). The effect of these strategies on the stability of mini-hepcidin analogues was investigated by incubating selected derivatives in human male serum at 37 °C and collecting samples at various time points. The results were then quantitated by liquid chromatography-mass spectrometry (LC-MS). We were unable to determine the serum stability of all analogues as the recovery from serum and detection of the peptides was very low. Modification of sample preparation protocols, optimisation of LC/MS conditions, and reducing serum concentration to 25% were unable to improve yield/detection. We would predict that this poor recovery is due to high binding of peptides to serum proteins, which is consistent with native hepcidin, which binds to α-2-macroglobulin [35, 36]. […] Effect of macrocyclisation and N-methylation on the stability of selected mini- hepcidin derivatives. A) Illustration of sites most susceptible to enzymatic attack in mini- hepcidin derivatives. B) Serum stability analysis of selected […]. Human male serum was centrifuged at 20,000 g for 10 minutes and the clear part of the supernatant was then diluted to 25% (v/v) with Milli-Q® water and incubated at 37 °C for 15 minutes. Each peptide sample was dissolved in triplicate at a final concentration of 20 μM in pre-incubated 25% serum, or Milli-Q® water as a control. Aliquots of 100 μL were removed at different time points and quenched with 100 μL of 15% trichloroacetic acid (TCA), followed by […] Supernatant was then removed and transferred into vials for liquid chromatography mass spectrometry (LC- MS) analysis (50 μL injection and multiple reaction monitoring (MRM) protocol). Error bars […] Comparison between Hep9, 2, […]9, 9. (also on this page, place not known: […] Hep9 2 […]] 7 Proteolytic attack Reduced proteolytic attack Blocked proteolytic attack 0 50 100 150 200 0 50 100 Time /min % Peptide Remaining 2 9 A B 7) (1 picture or pasted object on this page, not shown here)

For another data set, the system named is Caco-2. Description: Caco-2 in vitro model (preliminary). The data set is classed as in vitro ADME. Conditions: preliminary results, data not shown. The text has this: It has been proposed that by enhancing the lipophilicity of peptides, the intestinal permeability could be improved by facilitating transcellular absorption (passive diffusion). Thus, our rationale was to improve the permeability of Hep9 2, by increasing its lipophilicity via both cyclisation and multiple N-methylations. […] Cyclisation and N-methylation appear to facilitate the crossing of the artificial lipid membrane for cHep9[Ser^1, MeThr^2, MeIle^8] 13, but this enhancement was not statistically significant relative to atenolol, a marker for poor transcellular permeability, or Hep9 2, (Figure 5). […] Preliminary results from a Caco-2 in vitro model were consistent with the PAMPA data (data not shown).

Where two headings read alike, the source gives them in different places. Where a SMILES comes first, the peptide text is derived from it. Where no end group is shown, it is not given here.

A word on the EC50: it is the concentration that produces a half-maximal response. A high value points to a need for much substance. For `CC[C@H](C)[C@@H]1NC(=O)[C@@H](NC(=O)[C@@H](NC(=O)[C@@H]2CCCN2C(=O)[C@H](Cc2ccccc2)NC(=O)[C@H](Cc2c[nH]cn2)NC(=O)[C@@H](NC(=O)[C@@H](N)CC(=O)O)[C@@H](C)O)[C@@H](C)CC)CSSC[C@@H](C(=O)N[C@@H](CCCCN)C(=O)N[C@H](C(=O)O)[C@@H](C)O)NC(=O)[C@@H]2CSSC[C@@H]3NC(=O)[C@@H]4CSSC[C@H](NC(=O)[C@H](Cc5ccccc5)NC1=O)C(=O)N[C@@H](CSSC[C@H](NC(=O)[C@H](CCCCN)NC(=O)[C@H](CO)NC(=O)[C@H](CCCNC(=N)N)NC(=O)[C@H](Cc1c[nH]cn1)NC3=O)C(=O)NCC(=O)N[C@@H](CCSC)C(=O)N2)C(=O)NCC(=O)N4` [Peptide 1, reference compound], in data set [1], the EC50 is 9.38 nM and the “FPN Degradation % ± SEM” value worked out at 100 ± 2.6%.

Broadly, the half-life is the time in which the quantity being followed falls by half. The compound `CC[C@H](C)[C@H](NC(=O)[C@H](CS)NC(=O)[C@@H](NC(=O)[C@@H]1CCCN1C(=O)[C@H](Cc1ccccc1)NC(=O)[C@H](Cc1c[nH]cn1)NC(=O)[C@@H](NC(=O)[C@@H](N)CC(=O)O)[C@@H](C)O)[C@@H](C)CC)C(=O)N[C@@H](Cc1ccccc1)C(=O)O` [Peptide 2, reference compound] gave an EC50 in data set [1] of 2110 nM. Moreover, the half-life at 20 μM in data set [2] (male, human, serum) is around 3 min.

In data set [1], `CC[C@H](C)[C@H](NC(=O)[C@H](CS)NC(=O)[C@H]([C@@H](C)CC)N(C)C(=O)[C@@H]1CCCN1C(=O)[C@H](Cc1ccccc1)NC(=O)[C@H](Cc1c[nH]cn1)NC(=O)[C@H]([C@@H](C)O)N(C)C(=O)[C@@H](N)CO)C(=O)N[C@@H](Cc1ccccc1)C(=O)O` [Peptide 5, S[N-Me T]HFP[N-Me I]CIF] (HELM PEPTIDE1{S.[meT].H.F.P.[meI].C.I.F}$$$$V2.0; N-terminus assumed) had an EC50 of 40700 nM.

As to `CC[C@H](C)[C@H](NC(=O)[C@@H]1CCCN1C(=O)[C@H](Cc1ccccc1)NC(=O)[C@H](Cc1c[nH]cn1)NC(=O)[C@H]([C@@H](C)O)N(C)C(=O)[C@@H](N)CO)C(=O)N[C@@H](CS)C(=O)N(C)[C@H](C(=O)N[C@@H](Cc1ccccc1)C(=O)O)[C@@H](C)CC` [Peptide 6, S[N-Me T]HFPIC[N-Me I]F] (HELM PEPTIDE1{S.[meT].H.F.P.I.C.[meI].F}$$$$V2.0; N-terminus assumed), the EC50 in data set [1] is 2170 nM. In addition, the half-life at 20 μM in data set [2] (25% (v/v) human male serum, 20 μM peptide in 25% human male serum, 37 °C, read-out: peptide half-life in serum) was around 12 min. The “stability relative to Hep9” value in data set [2] (25% human male serum, 37 °C, ratio of half-lives) was “approximately four”.

Compound `CC[C@H](C)[C@@H](C(=O)N[C@@H](Cc1ccccc1)C(=O)O)N(C)C(=O)[C@H](CS)NC(=O)[C@H]([C@@H](C)CC)N(C)C(=O)[C@@H]1CCCN1C(=O)[C@H](Cc1ccccc1)NC(=O)[C@H](Cc1c[nH]cn1)NC(=O)[C@H]([C@@H](C)O)N(C)C(=O)[C@@H](N)CO` [Peptide 7, S[N-Me T]HFP[N-Me I]C[N-Me I]F] (HELM PEPTIDE1{S.[meT].H.F.P.[meI].C.[meI].F}$$$$V2.0; N-terminus assumed) gave an EC50 in data set [1] of 1890 nM.

Turning to `CC[C@H](C)[C@@H]1NC(=O)[C@H](CS)NC(=O)[C@H]([C@@H](C)CC)NC(=O)[C@@H]2CCCN2C(=O)[C@H](Cc2ccccc2)NC(=O)[C@H](Cc2c[nH]cn2)NC(=O)[C@H]([C@@H](C)O)NC(=O)[C@H](CC(=O)O)NC(=O)[C@H](Cc2ccccc2)NC1=O` [Peptide 8], the half-life at 20 μM in data set [2] (serum (25% v/v), 20 μM peptide in 25% human male serum, 37 °C, read-out: peptide half-life in serum) was around 8 min.

For `CC[C@H](C)[C@@H]1NC(=O)[C@H](CS)NC(=O)[C@H]([C@@H](C)CC)NC(=O)[C@@H]2CCCN2C(=O)[C@H](Cc2ccccc2)NC(=O)[C@H](Cc2c[nH]cn2)NC(=O)[C@H]([C@@H](C)O)NC(=O)[C@H](CO)NC(=O)[C@H](Cc2ccccc2)NC1=O` [Peptide 9] (HELM PEPTIDE1{C.I.F.S.T.H.F.P.I}$PEPTIDE1,PEPTIDE1,1:R1-9:R2$$$V2.0), the EC50 in data set [1] was 266 nM.

On to `CC[C@H](C)[C@@H]1NC(=O)[C@H](CS)NC(=O)[C@H]([C@@H](C)CC)NC(=O)[C@@H]2CCCN2C(=O)[C@H](Cc2ccccc2)NC(=O)[C@H](Cc2c[nH]cn2)NC(=O)[C@H]([C@@H](C)O)NC(=O)[C@H](CC(=O)O)NC(=O)CNC(=O)CNC(=O)CNC(=O)CNC(=O)[C@H](Cc2ccccc2)NC1=O` [Peptide 10] (HELM PEPTIDE1{C.I.F.G.G.G.G.D.T.H.F.P.I}$PEPTIDE1,PEPTIDE1,1:R1-13:R2$$$V2.0), for which the concentration giving a half-maximal response (EC50) in data set [1] is 158 nM.

`CC[C@H](C)[C@H]1C(=O)N[C@@H](Cc2ccccc2)C(=O)N[C@@H](CC(=O)O)C(=O)N[C@@H]([C@@H](C)O)C(=O)N[C@@H](Cc2c[nH]cn2)C(=O)N[C@@H](Cc2ccccc2)C(=O)N2CCC[C@H]2C(=O)N(C)[C@@H]([C@@H](C)CC)C(=O)N[C@@H](CS)C(=O)N1C` [Peptide 12, c(DTHFP[N-Me I]C[N-Me I]F)] gave an EC50 in data set [1] of 2900 nM.

`CC[C@H](C)[C@@H]1NC(=O)[C@@H]2CCCN2C(=O)[C@H](Cc2ccccc2)NC(=O)[C@H](Cc2c[nH]cn2)NC(=O)[C@H]([C@@H](C)O)N(C)C(=O)[C@H](CO)NC(=O)[C@H](Cc2ccccc2)NC(=O)[C@H]([C@@H](C)CC)N(C)C(=O)[C@H](CS)NC1=O` [Peptide 13, c(S[N-Me T]HFPIC[N-Me I]F)] (HELM PEPTIDE1{S.[meT].H.F.P.I.C.[meI].F}$PEPTIDE1,PEPTIDE1,1:R1-9:R2$$$V2.0) had an EC50 in data set [1] of 140 nM. The “Caco-2 permeability” value with Caco-2 is “paralleled these observations”.

As for DTHFP[N-Me I]C[N-Me I]F [Peptide 4], the “FPN Degradation % ± SEM” value in data set [1] is listed as “Not active”.

In data set [1], STHFPICIF-OH [Peptide 3] showed an EC50 of 326 nM.

For the compound c(DTH[N-Me F]PICI[N-Me F]) [Peptide 11], the “FPN Degradation % ± SEM” value in data set [1] is on record as 63 ± 1.6%.

The values are drawn from PMC7915682, “Pursuing Orally Bioavailable Hepcidin Analogues via Cyclic N-Methylated Mini-Hepcidins” (Biomedicines, 2021).
